Test results as given in patent US11382918B2, “Methods for treating Huntington's Disease” (PTC Therapeutics, Inc., priority 2017, dated 2022).
Counter-ions that a name gives are not always drawn.

system: Endogenous Huntingtin Protein (HTT); assay: Endogenous Huntingtin Protein Assay (ELISA-based MSD electrochemiluminescence); format: cell-based; details: Table 1
Procedure, shortened: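 MSD electrochemiluminescence sandwich ELISA for endogenous HTT: sample lysates captured overnight at 4 °C on MW1 (expanded polyglutamine) or MAB2166 antibody. Detection used rabbit monoclonal #5656S, then goat anti-rabbit SULFO-TAG antibody, each 1 h at room temperature.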

Compound | IC50 [µM]
O=c1cc(-c2cnn(C3CCCCO3)c2)nc2ccc(N3CCNCC3)cn12 (stereo not drawn) [compound 854, 7-(piperazin-1-yl)-2-[1-(tetrahydro-2H-pyran-2-yl)-1H-pyrazol-4-yl]-4H-pyrido[1,2-a]pyrimidin-4-one] | 3 to 33
O=c1cc(-c2cn[nH]c2)nc2ccc(N3CCNCC3)cn12 [compound 855, 7-(piperazin-1-yl)-2-(1H-pyrazol-4-yl)-4H-pyrido[1,2-a]pyrimidin-4-one hydrochloride (1:1)] | 3 to 33
Cc1cc2cc(-c3cc(=O)n4cc(N5CCN[C@@H](C)C5)ccc4n3)ccn2n1 [compound 856, 7-[(3S)-3-methylpiperazin-1-yl]-2-(2-methylpyrazolo[1,5-a]pyridin-5-yl)-4H-pyrido[1,2-a]pyrimidin-4-one hydrochloride (1:2)] | 1 to 3
Cc1cc2cc(-c3cc(=O)n4cc(C5=CCNCC5)ccc4n3)ccn2n1 [compound 857, 2-(2-methylpyrazolo[1,5-a]pyridin-5-yl)-7-(1,2,3,6-tetrahydropyridin-4-yl)-4H-pyrido[1,2-a]pyrimidin-4-one] | 0.5 to 1
CCN1CC=C(c2ccc3nc(-c4ccn5nc(C)cc5c4)cc(=O)n3c2)CC1 [compound 858, 7-(1-ethyl-1,2,3,6-tetrahydropyridin-4-yl)-2-(2-methylpyrazolo[1,5-a]pyridin-5-yl)-4H-pyrido[1,2-a]pyrimidin-4-one] | 1 to 3
Cc1cc2cc(-c3cc(=O)n4cc(N5CCNCC5)ccc4n3)ccn2n1 [compound 859, 2-(2-methylpyrazolo[1,5-a]pyridin-5-yl)-7-(piperazin-1-yl)-4H-pyrido[1,2-a]pyrimidin-4-one hydrochloride (1:2)] | 1 to 3
Cc1cc(-c2cc(=O)n3cc(C4=CCNCC4)ccc3n2)nc2cnn(C)c12 [compound 860, 2-(1,7-dimethyl-1H-pyrazolo[4,3-b]pyridin-5-yl)-7-(1,2,3,6-tetrahydropyridin-4-yl)-4H-pyrido[1,2-a]pyrimidin-4-one hydrochloride (1:2)] | 3 to 33
Cc1nc(-c2cc(=O)n3cc(C4=CCNCC4)ccc3n2)cc2cnn(C)c12 [compound 861, 2-(1,7-dimethyl-1H-pyrazolo[3,4-c]pyridin-5-yl)-7-(1,2,3,6-tetrahydropyridin-4-yl)-4H-pyrido[1,2-a]pyrimidin-4-one hydrochloride (1:2)] | 3 to 33
Cc1nc(-c2cc(=O)n3cc(C4=CCNCC4)ccc3n2)cc2cn(C)nc12 [compound 862, 2-(2,7-dimethyl-2H-pyrazolo[3,4-c]pyridin-5-yl)-7-(1,2,3,6-tetrahydropyridin-4-yl)-4H-pyrido[1,2-a]pyrimidin-4-one hydrochloride (1:2)] | 1 to 3
Cc1cc(-c2cc(=O)n3cc(C4=CCNCC4)ccc3n2)nc2cn(C)nc12 [compound 863, 2-(2,7-dimethyl-2H-pyrazolo[4,3-b]pyridin-5-yl)-7-(1,2,3,6-tetrahydropyridin-4-yl)-4H-pyrido[1,2-a]pyrimidin-4-one hydrochloride (1:2)] | 1 to 3
CCN1CCC(c2cn3c(=O)cc(-c4ccc5nn(C)cc5c4)nc3c(C)n2)CC1 [compound 864, 7-(1-ethylpiperidin-4-yl)-9-methyl-2-(2-methyl-2H-indazol-5-yl)-4H-pyrazino[1,2-a]pyrimidin-4-one] | < 0.1
Cc1cc(C2=CC(C)(C)NC(C)(C)C2)cn2c(=O)cc(-c3ccc4nn(C)cc4c3)nc12 [compound 865, 9-methyl-2-(2-methyl-2H-indazol-5-yl)-7-(2,2,6,6-tetramethyl-1,2,3,6-tetrahydropyridin-4-yl)-4H-pyrido[1,2-a]pyrimidin-4-one] | 3 to 33
Cc1cc(-c2cc(=O)n3cc(C4CC(C)(C)NC(C)(C)C4)cc(C)c3n2)cc2cn(C)nc12 [compound 866, 2-(2,7-dimethyl-2H-indazol-5-yl)-9-methyl-7-(2,2,6,6-tetramethylpiperidin-4-yl)-4H-pyrido[1,2-a]pyrimidin-4-one] | 3 to 33
Cc1cc(C2CC(C)(C)NC(C)(C)C2)cn2c(=O)cc(-c3ccc4nn(C)cc4c3)nc12 [compound 867, 9-methyl-2-(2-methyl-2H-indazol-5-yl)-7-(2,2,6,6-tetramethylpiperidin-4-yl)-4H-pyrido[1,2-a]pyrimidin-4-one] | 3 to 33
Cc1cn2cc(-c3cc(=O)n4cc(N5CCN(C)CC5)ccc4n3)cc(C)c2n1 [compound 868, 2-(2,8-dimethylimidazo[1,2-a]pyridin-6-yl)-7-(4-methylpiperazin-1-yl)-4H-pyrido[1,2-a]pyrimidin-4-one] | 1 to 3
Cc1nc(C2CCNCC2)cn2c(=O)cc(-c3cc(F)c4nn(C)cc4c3)nc12 [compound 869, 2-(7-fluoro-2-methyl-2H-indazol-5-yl)-9-methyl-7-(piperidin-4-yl)-4H-pyrazino[1,2-a]pyrimidin-4-one] | < 0.1
Cc1cn2nc(-c3cc(=O)n4cc(C5CCNCC5)nc(C)c4n3)ccc2n1 [compound 870, 9-methyl-2-(2-methylimidazo[1,2-b]pyridazin-6-yl)-7-(piperidin-4-yl)-4H-pyrazino[1,2-a]pyrimidin-4-one hydrochloride (1:2)] | < 0.1
Cc1cc(-c2cc(=O)n3cc(C4CCNCC4)nc(C)c3n2)cc2cn(C)nc12 [compound 871, 2-(2,7-dimethyl-2H-indazol-5-yl)-9-methyl-7-(piperidin-4-yl)-4H-pyrazino[1,2-a]pyrimidin-4-one hydrochloride (1:1)] | < 0.1
CCN1CCC(c2cn3c(=O)cc(-c4cc(F)c5nn(C)cc5c4)nc3c(C)n2)CC1 [compound 872, 7-(1-ethylpiperidin-4-yl)-2-(7-fluoro-2-methyl-2H-indazol-5-yl)-9-methyl-4H-pyrazino[1,2-a]pyrimidin-4-one] | < 0.1
CCN1CCC(c2cn3c(=O)cc(-c4ccc5nc(C)cn5n4)nc3c(C)n2)CC1 [compound 873, 7-(1-ethylpiperidin-4-yl)-9-methyl-2-(2-methylimidazo[1,2-b]pyridazin-6-yl)-4H-pyrazino[1,2-a]pyrimidin-4-one] | 0.1 to 0.5
CCN1CCC(c2cn3c(=O)cc(-c4cc(C)c5nn(C)cc5c4)nc3c(C)n2)CC1 [compound 874, 2-(2,7-dimethyl-2H-indazol-5-yl)-7-(1-ethylpiperidin-4-yl)-9-methyl-4H-pyrazino[1,2-a]pyrimidin-4-one hydrochloride (1:1)] | 0.1 to 0.5
Cc1cn2cc(-c3cc(=O)n4cc(C5CCNCC5)nc(C)c4n3)cc(F)c2n1 [compound 875, 2-(8-fluoro-2-methylimidazo[1,2-a]pyridin-6-yl)-9-methyl-7-(piperidin-4-yl)-4H-pyrazino[1,2-a]pyrimidin-4-one hydrochloride (1:2)] | < 0.1
CCN1CCC(c2cn3c(=O)cc(-c4cc5c(C)nc(C)cn5c4)nc3c(C)n2)CC1 [compound 876, 2-(1,3-dimethylpyrrolo[1,2-a]pyrazin-7-yl)-7-(1-ethylpiperidin-4-yl)-9-methyl-4H-pyrazino[1,2-a]pyrimidin-4-one] | 1 to 3
CCN1CCC(c2cn3c(=O)cc(-c4cc(F)c5nc(C)cn5c4)nc3c(C)n2)CC1 [compound 877, 7-(1-ethylpiperidin-4-yl)-2-(8-fluoro-2-methylimidazo[1,2-a]pyridin-6-yl)-9-methyl-4H-pyrazino[1,2-a]pyrimidin-4-one] | < 0.1
